Entries after “also recorded” stand apart in the source; their conditions may differ.
System: HIV-1BAL strain in M type macrophage (M-MΦ) derived from human monocytes
Experiment: Proliferation of HIV-1 in M-MΦ: p24 protein in culture supernatant by sandwich ELISA
Assay type: cell-based
Conditions: HIV-1BAL; for viral production in M-MΦ at 30 μM: incubated for 10 days (FIGS. 21-25); for production of p24 protein in M-MΦ at various concentrations: incubated for 10 days, compared with DMSO (FIGS. 21-25); for p24 protein / viral proliferation in M-MΦ with kinase inhibitor: 10 μM, up to day 14, compared with control group (FIG. 20)
Description: Macrophages derived from monocytes were prepared by culturing the recovered monocytes in the presence of M-CSF (macrophage colony-stimulating factor) (10^4 U/ml, provided by Morinaga Milk Co.), granulocytes and granulocyte-macrophage colony-stimulating factor, GM-CSF) (500 U/ml, provided by Japan Scheling Plough Co., Osaka, or purchased from R & S Genzyme-TECHNE Inc.) with RPMI1640 medium added with FCS10% (Nissui Seiyaku Co., Tokyo) for 7–8 days.
The macrophage prepared by differential induction of M-CSF from human monocytes is designated as M type macrophage (M type MΦ or M-MΦ) and the macrophage prepared by differential induction of GM-CSF from human monocytes is designated as GM type macrophage (GM type MΦ or GM-MΦ) Further, alveolar macrophage (alveolar MΦ or A-MΦ) was prepared as follows. Cells in the alveolar lavage liquid obtained from the alveolar lavage of healthy volunteers were recovered, suspended and adhered to plastics, then the non-adhered cells were washed out and the remained adhered cells were designated as the alveolar MΦ.
Infection of HIV-1 to macrophage was performed as follows. Macrophage directed viral strains, HIV-1JR-FL and HIV-1BAL, were infected for 2 hours in contact with M-MΦ, GM-MΦ and A-MΦ (adjusted to 2.5×10^5/well, Flacon No3043: Becton Dickinson Labware, Inc. U.S.)at low concentration (p24 antigen titer 50 ng/ml, TCID50=3000/ml virus to final concentration at 100 pg/ml), and non-adsorbed virus to the macrophage was washed out, and cultured with adding fresh medium. In case of the medium with M-MΦ, M-CSF was added (10^4 U/ml), and that of the medium with GM-MΦ, GM-CSF was added (500 U/ml).
Proliferation of virus was examined with the released viral particles in the culture supernatant after the infection by the sandwich ELISA using two types of anti-p24 antibody (Nu24 and 10B5^13). The following JAM62 and JAM65 were used as LTR (HIV long terminal repeat)-gap gene primer. The following JAM63 and JAM 64 were used as the internal primer for the nested PCR. • JAM62: • 5′-[…]-3′ (SEQ ID NO: 1) • JAM65: • 5′-[…]-3′ (SEQ ID NO: 2) • JAM63: • 5′-GTGTOACTCTGGTAACTAGAGATCC-3′ (SEQ ID NO: 3) • JAM64: • 5′-[…]-3′ (SEQ ID NO: 4) (1-4) Assay of Expression of Tyrosine Kinase Hck Protein and Transcription Factor C/EBPβ Protein
In order to show growth suppression effect of the present invention, among macrolide derivatives, EM, EM201, EM202, EM703, CAM, EM722, EM730, EM732, EM736, EM734, EM735, EM747, EM748, EM743, EM746, EM750 or EM751 was dissolved in DMSO with each 100 mM concentration, and used in dilution with the medium thereafter. A control group was M-MΦ treated only with DMSO used for dissolving macrolide derivatives.
M-MΦ and GM-M Φ were subjected to contact infection with HIV-1BAL strain for 2 hours, added 30 μM of EM, EM201, EM202, EM703, CAM,EM722, EM730, EM732, EM736, EM734, EM735, EM747, EM748, EM743, EM746, EM750 or EM751, incubated for 14 days and amount of p24 protein in the cultured supernatant was assayed in the time-dependent manner.

Molecule: bis-de(3′-N-methyl)-3′-N-ethyl-8,9-anhydro-pseudo-erythromycin A 6,9-hemiketal [EM722]
- viral production in M-MΦ at 30 μM: inhibit almost completely viral production; also recorded: almost complete inhibition
- production of p24 protein in M-MΦ at various concentrations: suppressed depending on the concentration of agent

Molecule: CC[C@@H](O)[C@@](C)(O)[C@@H]1OC(=O)[C@H](C)[C@@H](O[C@H]2C[C@@](C)(OC)[C@@H](O)[C@H](C)O2)[C@H](C)[C@@H](O[C@@H]2O[C@H](C)C[C@H](NC(C)C)[C@H]2O)[C@@]2(C)CC(C)=C(O2)[C@@H]1C [EM736, bis-de(3′-N-methyl)-3′-N-(2-propyl)-8,9-anhydro-pseudoerythromycin A 6,9-hemiketal]
- viral production in M-MΦ at 30 μM: inhibit almost completely viral production; also recorded: almost complete inhibition
- production of p24 protein in M-MΦ at various concentrations: suppressed depending on the concentration of agent

Molecule: COC1(C)CC(OC2C(C)C(=O)OC(C(C)=NO)C(C)C3=C(C)CC(C)(O3)C(OC3OC(C)CC(N(C)C)C3O)C2C)OC(C)C1O (stereo not shown) [EM743, de(12-hydroxy)-de[12-(1-hydroxypropyl)]-12-hydroxy-oxime-8,9-anhydro-pseudoerythromycin A 6,9-hemiketal]
- viral production in M-MΦ at 30 μM: inhibit almost completely viral production; also recorded: almost complete inhibition
- production of p24 protein in M-MΦ at various concentrations: suppressed depending on the concentration of agent

Molecule: COc1cccc(-c2cc(=O)c3ccccc3o2)c1N [PD98059, 2-[2-amino-3-methoxyphenyl]-4H-1-benzopyran-4-one, reference compound]
- p24 protein / viral proliferation in M-MΦ with kinase inhibitor: amount of p24 protein was not different in the control group

Molecule: COC1(C)CC(OC2C(C)C(=O)OC(C(C)N)C(C)C3=C(C)CC(C)(O3)C(OC3OC(C)CC(N(C)C)C3O)C2C)OC(C)C1O (stereo not shown) [EM750, de(12-hydroxy)-de[12-(1-hydroxypropyl)]-12-amino-8,9-anhydro-pseudoerythromycin A 6,9-hemiketal]
- viral production in M-MΦ at 30 μM: inhibit almost completely viral production; also recorded: almost complete inhibition
- production of p24 protein in M-MΦ at various concentrations: suppressed depending on the concentration of agent

Molecule: CCCNC1CC(C)OC(OC2C(C)C(OC3CC(C)(OC)C(O)C(C)O3)C(C)C(=O)OC(C(C)(O)C(O)CC)C(C)C3=C(C)CC2(C)O3)C1O (stereo not shown) [EM730, bis-de(3′-N-methyl)-3′-N-propyl-8,9-anhydro-pseudo-erythromycin A 6,9-hemiketal]
- viral production in M-MΦ at 30 μM: inhibit almost completely viral production; also recorded: almost complete inhibition
- production of p24 protein in M-MΦ at various concentrations: suppressed depending on the concentration of agent

Molecule: C[S+]([O-])c1ccc(-c2nc(-c3ccc(F)cc3)c(-c3ccncc3)[nH]2)cc1 (stereo not shown) [SB203580, 4-[4-fluoro-phenyl]-2-[4-methylsulfinylphenyl]-5-[4-pyridyl]-1H-imidazole, reference compound]
- p24 protein / viral proliferation in M-MΦ with kinase inhibitor: no p24 protein was almost detected even on day 14

Molecule: CC[C@@H](O)[C@@](C)(O)[C@@H]1OC(=O)[C@H](C)[C@@H](O[C@H]2C[C@@](C)(OC)[C@@H](O)[C@H](C)O2)[C@H](C)[C@@H](O[C@@H]2O[C@H](C)C[C@H](N3CCCC3)[C@H]2O)[C@@]2(C)CC(C)=C(O2)[C@@H]1C [EM735, de(3′-dimethylamino)-3′-pyrrolidino-8,9-anhydro-pseudoerythromycin A 6,9-hemiketal]
- viral production in M-MΦ at 30 μM: inhibit almost completely viral production; also recorded: almost complete inhibition
- production of p24 protein in M-MΦ at various concentrations: suppressed depending on the concentration of agent

Molecule: CC[C@@H](O)[C@@](C)(O)[C@@H]1OC(=O)[C@H](C)[C@@H](O[C@H]2C[C@@](C)(OC)[C@@H](O)[C@H](C)O2)[C@H](C)[C@@H](O[C@@H]2O[C@H](C)C[C@H](N3CCCCC3)[C@H]2O)[C@@]2(C)CC(C)=C(O2)[C@@H]1C [EM734, de(3′-dimethylamino)-3′-piperidino-8,9-anhydro-pseudoerythromycin A 6,9-hemiketal]
- viral production in M-MΦ at 30 μM: inhibit almost completely viral production; also recorded: almost complete inhibition
- production of p24 protein in M-MΦ at various concentrations: suppressed depending on the concentration of agent

Molecule: CCC(O)C(C)(O)C1OC(=O)C(C)C(O)C(C)C(OC2OC(C)CC(NC)C2O)C2(C)CC(C)=C(O2)C1C (stereo not shown) [EM754, de(3-O-cladinosyl)-de(3′-N-methyl)-8,9-anhydro-pseudoerythromycin A 6,9-hemiketal]
- viral production in M-MΦ at 30 μM: inhibit almost completely viral production; also recorded: almost complete inhibition
- production of p24 protein in M-MΦ at various concentrations: suppressed depending on the concentration of agent

Molecule: de(3′-dimethylamino)-3′-[hexahydro-1(1H)-azepinyl]-8,9-anhydro-pseudoerythromycin A 6,9-hemiketal [EM748]
- viral production in M-MΦ at 30 μM: inhibit almost completely viral production; also recorded: almost complete inhibition
- production of p24 protein in M-MΦ at various concentrations: suppressed depending on the concentration of agent

Molecule: de[12-(1-hydroxypropyl)]-8,9-anhydro-pseudo-erythromycin A 6,9-hemiketal [EM746]
- viral production in M-MΦ at 30 μM: inhibit almost completely viral production; also recorded: almost complete inhibition
- production of p24 protein in M-MΦ at various concentrations: suppressed depending on the concentration of agent

Molecule: CC[C@@H](O)[C@@](C)(O)[C@@H]1OC(=O)[C@H](C)[C@@H](O[C@H]2C[C@@](C)(OC)[C@@H](O)[C@H](C)O2)[C@H](C)[C@@H](O[C@@H]2O[C@H](C)C[C@H](N3CCOCC3)[C@H]2O)[C@@]2(C)CC(C)=C(O2)[C@@H]1C [EM747, de(3′-dimethylamino)-3′-morpholino-8,9-anhydro-pseudoerythromycin A 6,9-hemiketal]
- viral production in M-MΦ at 30 μM: inhibit almost completely viral production; also recorded: almost complete inhibition
- production of p24 protein in M-MΦ at various concentrations: suppressed depending on the concentration of agent

Molecule: bis-de(3′-N-methyl)-3′-N-benzyl-8,9-anhydro-pseudo-erythromycin A 6,9-hemiketal [EM732]
- viral production in M-MΦ at 30 μM: inhibit almost completely viral production; also recorded: almost complete inhibition
- production of p24 protein in M-MΦ at various concentrations: suppressed depending on the concentration of agent

Molecule: CN[C@H]1C[C@@H](C)O[C@@H](O[C@@H]2[C@@H](C)[C@H](O[C@H]3C[C@@](C)(OC)[C@@H](O)[C@H](C)O3)[C@@H](C)C(=O)O[C@@H](C(C)O)[C@@H](C)C3=C(C)C[C@@]2(C)O3)[C@@H]1O (stereo partly shown) [EM751, de(3′-N-methyl)-de[12-(1-hydroxypropyl)]-8,9-anhydro-pseudoerythromycin A 6,9-hemiketal]
- viral production in M-MΦ at 30 μM: inhibit almost completely viral production; also recorded: almost complete inhibition
- production of p24 protein in M-MΦ at various concentrations: suppressed depending on the concentration of agent

— patent US7034005B2, “Use of agent for suppressing infection and proliferation of human immunodeficiency syndrome virus” (The Kitasato Institute, priority 2002, dated 2006)
